Like-named read-outs stand apart in the source and are kept apart here.
Experiments:
DU145 [1] = experiment: MTT cytotoxicity assay, DU145 prostate cancer cells; format: cell-based; conditions: means ± SDs of three independent experiments, read-out: IC50 ± SD, Prostate Cancer Cells, DU145
Protocol: (§1) All the cells were cultured as adherent monolayers in culture flasks, and were used to determine the anti-cancer efficacy of RP-010. DMEM supplemented with 4.5 g of glucose, 10% fetal bovine serum (FBS) and 1% penicillin/streptomycin, was used to augment cell growth. Finally, the cells were incubated and grown in a humidified incubator containing 5% CO2 at 37 °C [50]. […] Cells were obtained from frozen stocks and cell passaging (up to P4) was performed at 80% cell confluency, using PBS and trypsin + 2.2-mM EDTA.
(§2) MTT assays were used to determine the cytotoxicity of the RP compounds, to PC cell lines, as previously described.

CRL-1459 = experiment: MTT cytotoxicity assay, CRL-1459 normal colon epithelial cells; format: cell-based; conditions: Homo sapiens, normal colon epithelial cell line, means ± SDs of three independent experiments, read-out: IC50 ± SD, Non-Prostate Cells, CRL-1459
Protocol: as §1, §2

PC-3 [2] = experiment: Colony formation assay, PC-3; format: cell-based; conditions: 1 or 2 µM, vs vehicle, p < 0.01
Protocol: This assay was performed as previously described. The DU145 and PC-3 cells were incubated with RP-010 (1 or 2 µM) for 24 h. […], the medium was discarded and cells were trypsinized with 0.25% trypsin, 2.21-mM EDTA, and then harvested, counted, and reseeded in 6-well plates at a low density (500 cell/well). The cells were allowed to form colonies for 10–14 days at 37 °C, with the medium being changed every other day. Subsequently, methanol was used to fix the colonies formed in each plate, followed by staining the colonies with 0.1% crystal violet dye for 30 min. Finally, colonies were viewed and counted under an EVOS microscope (Themo Fisher Scientific, Wayne, MI, USA). The colony formation rate equation was applied for each compound: Colony formation rate = the number of colonies/numbers of seeded cells × 100%.

DU145 [3] = experiment: Time-dependent cell confluence (live cell imaging), DU145; format: cell-based
Protocol: The cytotoxicity of RP-010, over time, was determined using DU145 cells. The cells were seeded and incubated as previously described. The DU145 cells were incubated with vehicle or RP-010 for 72 h. The pictures were taken over time, at a snapshot interval of 15 min, from the same spot of the flask using the CytoSMART™ Lux 10X system (LONZA biosciences Walkersville, MD, USA) for live cell imaging.

PC-3 [4] = experiment: Cell cycle analysis (PI, flow cytometry), PC-3; format: cell-based; conditions: 0.5, 1 or 2 µM
Protocol: The effect of RP-010 on the cell cycle phases and function was determined using cell cycle analysis with PI staining, followed by flow cytometry. The cells were incubated with either vehicle or RP-010 (0.5, 1 or 2 µM) for 24 h. After incubation overnight, the cells were collected, washed and resuspended as an ice-cold PBS suspension. The DNA was stained with PI for at least 15 min on ice. A FACS Calibur flow cytometer from BD Biosciences (San Jose, CA, USA) was used to determine the distribution of the cells following incubation with vehicle or RP-010. Finally, the data were viewed and analysed using FlowJo v10.2 software from FlowJo LLC (Ashland, OR, USA).

PC-3 [5] = experiment: DAPI staining of nuclear changes, PC-3; format: cell-based; conditions: 24 and 48 h
Protocol: The nuclear changes in DU145 and PC-3 cells lines produced by RP-010 (1, 2 and 4 µM) incubation at 24 or 48 h were determined using DAPI staining. The cells were seeded on culture cover glasses in 6-well plates, and allowed to grow overnight. The cells were then incubated with RP-010, for an additional 24 h, at 37 °C. The incubated cells were fixed with 4% paraformaldehyde, followed by permeabilization with 1× PBS/0.3% Triton X-100 for 25 min. Finally, DAPI stain was added, and cells were photographed using the EVOS microscope.

[6] = tested on: Bak, Bax, Bcl2, caspase 3, PARP, cytochrome c in DU145 cells; experiment: Western analysis of apoptosis-regulating proteins, DU145; format: cell-based; conditions: 1 or 2 μM, 24 h
Protocol: DU145 cells were incubated with RP-010 ((1 or 2 µM) for 24 h. Thereafter, the cells were subjected to a two-step lysis process to extract and separate the cytosolic and the nuclear proteins, as previously described. Next, protein separation for both cytosolic and nuclear proteins was achieved by electrophoresing the samples through acrylamide SDS-PAGE gels, followed by transfer to a PVDF membrane. The PVDF membrane was then incubated overnight with the following primary antibodies: rabbit α-tubulin, 1:4000 dilution, rabbit BAX (1:1000), rabbit BAK (1:1000), rabbit cytochrome c (1:1000), rabbit PARP (1:5000), rabbit β-Catenin (1:4000), rabbit DVL3 (1:4000), rabbit LRP-6 (1:1000), rabbit P-LRP-6 (1:1000), rabbit c-Myc (1: 4000), rabbit cyclin B1 (1:2000), rabbit Wnt 5a (1:1000), rabbit naked 1 and naked 2 (1:1000), mouse E-cadherin (1:4000), mouse N-cadherin (1:4000), mouse β-actin (1:5000) and rabbit histone (1:3000). Finally, protein expression levels were determined as described previously. In the Figure 3, Figure 5 and Figure S8, the protein blots above β-actin were cytosolic lysates, while all the proteins below β-actin and above histones (loading controls) were nuclear lysates.

zebrafish = experiment: Zebrafish toxicity model; format: in vivo
Protocol: The zebrafish toxicity studies were conducted as previously described. Five days-post fertilization larvae (5 fish/well) were exposed to vehicle or RP-010 (0, 0.3, 1, 3, 6, and 10 µM). Subsequently, the zebrafish were observed visually, and pictures were taken at 24- and 48-hour post exposure (hpe). […] The zebrafish studies were approved by the University of Toledo Institutional Animal Care and Use Committee (#105414, approved on 10/2018).

COc1ccc(-c2nc3sc4c(c3c(=O)[nH]2)CCCC4)cc1 [RP10]
IC50 (DU145 [1]; Homo sapiens, DU-145, MTT assay): < 1 µM | IC50 (DU145 [1]; MTT assay): 0.5 ± 0.2 µM | IC50 (CRL-1459): 73 ± 5.3 µM | Colony formation rate (PC-3 [2]): significantly decreased | Cell growth over time (confluence) (DU145 [3]; 0.5 µM, after 24 h of incubation, p < 0.05): significantly decreased | Cell growth over time (confluence) (DU145 [3]; 1 µM, after 12 h of incubation, p < 0.01): significantly decreased | Percentage of cells in G1 (PC-3 [4]): significant decrease | Percentage of cells in the G2 phase (PC-3 [4]): significant increase | Nuclear morphology (DAPI) (PC-3 [5]; 1 µM): significant increase in multinucleated cells | Nuclear morphology (DAPI) (PC-3 [5]; 2 or 4 μM): apoptosis | Expression of Bax [6]: did not significantly alter | Levels of cytochrome c [6]: did not significantly alter | Levels of total cytosolic PARP [6]: significantly reduced | Cleavage of caspase-3 ([6]; p < 0.001): significantly increased | Expression of Bcl2 ([6]; p < 0.01): significantly downregulated | Levels of cleaved nuclear PARP ([6]; p < 0.01): increased | Levels of cleaved cytosolic PARP ([6]; p < 0.05): significantly increased | Expression level of Bak, increase ([6]; vs vehicle, p < 0.01): ≥ 2 fold | Concentration well tolerated / without significant toxic effects (zebrafish; zebrafish): up to 6 µM | Mortality (zebrafish; zebrafish larvae, 0.3, 1, 3, 6 or 10 µM, 24 and 48 h exposure): did not significantly increase

From PMC6563099, “Novel Thienopyrimidine Derivative, RP-010, Induces β-Catenin Fragmentation and Is Efficacious against Prostate Cancer Cells” (Cancers, 2019)
